Measurements reported in paper PMC2248166, “Quantitative peptide binding motifs for 19 human and mouse MHC class I molecules derived using positional scanning combinatorial peptide libraries” (Immunome Research, 2008).
Where a SMILES comes first, the peptide text is derived from it.

Target: HLA A*3201 (Homo sapiens, UniProt P04439, A270S/D101S/D185E/E176V/E277Q/F133L/G103R/G107R/G231S/H175R/I121M/I218V/I322F/K168Q/L105A/L300P/L318F/M331R/P208A/P217A/Q94H/R106L/R138Q/S129P/T104I/T323A/T345S/V100E/V321M/V358M)
Assay: biochemical
Type: binding

| Compound | IC50 [nM] |
| --- | --- |
| CC[C@H](C)[C@H](NC(=O)[C@H](C)NC(=O)[C@H](CC(N)=O)NC(=O)[C@@H](NC(=O)[C@@H]1CCCN1C(=O)[C@H](CCC(=O)O)NC(=O)[C@@H](NC(=O)[C@H](CC(C)C)NC(=O)[C@@H](N)CCCCN)[C@@H](C)CC)C(C)C)C(=O)O [3102.0321] (H-KLIEPVNAI-OH) | 11 |
| CC[C@H](C)[C@H](NC(=O)[C@H](CCC(=O)O)NC(=O)[C@H](Cc1ccccc1)NC(=O)[C@H](CO)NC(=O)[C@@H](N)CCCNC(=N)N)C(=O)N[C@H](C(=O)N[C@@H](CC(N)=O)C(=O)N[C@H](C(=O)N[C@@H](CC(C)C)C(=O)O)C(C)C)[C@@H](C)CC [3102.0322] (H-RSFEIINVL-OH) | 2.9 |
| CC[C@H](C)[C@H](NC(=O)[C@H](CCCNC(=N)N)NC(=O)[C@H](CCC(N)=O)NC(=O)[C@H](C)NC(=O)[C@@H](NC(=O)[C@H](CC(N)=O)NC(=O)[C@H](Cc1ccccc1)NC(=O)[C@H](CC(C)C)NC(=O)[C@@H](N)CCCCN)[C@@H](C)CC)C(=O)O [3102.0323] (H-KLFNIAQRI-OH) | 1.6 |
| CC[C@H](C)[C@H](NC(=O)[C@H](CC(N)=O)NC(=O)[C@H](CC(C)C)NC(=O)[C@@H](NC(=O)[C@@H](N)C(C)C)[C@@H](C)O)C(=O)N[C@@H](CO)C(=O)N[C@@H](CO)C(=O)N[C@@H](CCCCN)C(=O)N[C@@H](Cc1ccccc1)C(=O)O [3102.0324] (H-VTLNISSKF-OH) | 11 |
| CC[C@H](C)[C@H](N)C(=O)N[C@H](C(=O)N[C@@H](CC(N)=O)C(=O)N[C@@H](CCCCN)C(=O)N[C@@H](Cc1ccccc1)C(=O)N[C@@H](Cc1ccccc1)C(=O)N[C@@H](CCC(=O)O)C(=O)N[C@H](C(=O)N[C@H](C(=O)O)[C@@H](C)CC)C(C)C)[C@@H](C)CC [3102.0325] (H-IINKFFEVI-OH) | 11 |
| CC[C@H](C)[C@H](NC(=O)[C@H](CC(C)C)NC(=O)[C@H](C)NC(=O)[C@@H](NC(=O)[C@H](C)N)[C@@H](C)O)C(=O)N[C@@H](CC(C)C)C(=O)N[C@H](C(=O)N[C@@H](CO)C(=O)N[C@@H](Cc1ccccc1)C(=O)O)C(C)C [3102.0327] (H-ATALILVSF-OH) | 1.4 |
| CC[C@H](C)[C@H](NC(=O)[C@@H](NC(=O)[C@H](CC(C)C)NC(=O)[C@H](CC(C)C)NC(=O)[C@H](CC(C)C)NC(=O)[C@H](CO)NC(=O)[C@H](Cc1ccccc1)NC(=O)[C@H](CC(C)C)NC(=O)[C@@H](N)CO)C(C)C)C(=O)O [3102.0328] (H-SLFSLLLVI-OH) | 28 |
| CC[C@H](C)[C@H](NC(=O)[C@@H](NC(=O)[C@@H](NC(=O)[C@H](Cc1c[nH]cn1)NC(=O)[C@H](CC(C)C)NC(=O)[C@H](CCSC)NC(=O)[C@H](CC(N)=O)NC(=O)[C@H](CCC(N)=O)NC(=O)[C@@H](N)CCCCN)C(C)C)[C@@H](C)CC)C(=O)O [3102.0329] (H-KQNMLHVII-OH) | 2.1 |
| CC[C@H](C)[C@H](NC(=O)[C@H](CO)NC(=O)[C@@H](NC(=O)[C@H](C)NC(=O)[C@@H](NC(=O)[C@H](CC(C)C)NC(=O)[C@H](CC(C)C)NC(=O)[C@@H](NC(=O)[C@@H](N)CCCCN)[C@@H](C)CC)C(C)C)C(C)C)C(=O)O [3102.0330] (H-KILLVAVSI-OH) | 1.5 |
| CC[C@H](C)[C@H](NC(=O)[C@H](CC(C)C)NC(=O)[C@H](CC(C)C)NC(=O)[C@@H](NC(=O)[C@H](Cc1ccccc1)NC(=O)[C@H](CO)NC(=O)[C@H](CC(N)=O)NC(=O)[C@@H](NC(=O)[C@@H](N)CO)C(C)C)[C@@H](C)O)C(=O)O [3102.0331] (H-SVNSFTLLI-OH) | 2.6 |
| CC(C)C[C@H](NC(=O)[C@H](Cc1ccccc1)NC(=O)[C@H](CO)NC(=O)[C@H](CC(C)C)NC(=O)[C@@H](N)CCCCN)C(=O)N[C@@H](CO)C(=O)N[C@@H](CCCNC(=N)N)C(=O)N[C@H](C(=O)N[C@@H](Cc1ccccc1)C(=O)O)C(C)C [3102.0332] (H-KLSFLSRVF-OH) | 2.2 |
| CC[C@H](C)[C@H](N)C(=O)N[C@H](C(=O)N[C@@H](CO)C(=O)N[C@H](C(=O)N[C@H](C(=O)N[C@@H](CO)C(=O)N[C@@H](CC(C)C)C(=O)N[C@H](C(=O)N[C@H](C(=O)O)[C@@H](C)CC)C(C)C)[C@@H](C)CC)C(C)C)[C@@H](C)CC [3102.0334] (H-IISVISLVI-OH) | 47 |
| CC[C@H](C)[C@H](NC(=O)[C@H](CCCCN)NC(=O)[C@H](CCC(N)=O)NC(=O)[C@H](C)NC(=O)[C@@H](NC(=O)CNC(=O)[C@H](Cc1ccc(O)cc1)NC(=O)[C@H](CC(C)C)NC(=O)[C@@H](N)CCSC)[C@@H](C)CC)C(=O)O [3102.0335] (H-MLYGIAQKI-OH) | 12 |
| CC[C@H](C)[C@H](NC(=O)[C@@H](NC(=O)[C@@H](NC(=O)[C@@H](NC(=O)[C@@H](NC(=O)[C@@H](NC(=O)[C@H](CC(N)=O)NC(=O)[C@@H](NC(=O)[C@@H](N)C(C)C)[C@@H](C)O)C(C)C)[C@@H](C)CC)[C@@H](C)CC)[C@@H](C)CC)C(C)C)C(=O)O [3102.0336] (H-VTNVIIIVI-OH) | 14 |
| CC[C@H](C)[C@H](NC(=O)[C@@H](NC(=O)[C@H](CC(C)C)NC(=O)[C@@H](NC(=O)[C@H](CCCNC(=N)N)NC(=O)[C@H](CC(N)=O)NC(=O)[C@@H](NC(=O)[C@@H](NC(=O)CN)[C@@H](C)O)[C@@H](C)CC)[C@@H](C)CC)C(C)C)C(=O)O [3102.0337] (H-GTINRILVI-OH) | 15 |
| CC[C@H](C)[C@H](N)C(=O)N[C@H](C(=O)N[C@@H](CC(C)C)C(=O)N[C@@H](Cc1c[nH]cn1)C(=O)N[C@@H](CC(C)C)C(=O)N[C@@H](C)C(=O)N[C@@H](CS)C(=O)NCC(=O)N[C@@H](Cc1ccccc1)C(=O)O)[C@@H](C)O [3102.0338] (H-ITLHLACGF-OH) | 1.4 |
| CSCC[C@H](N)C(=O)N[C@H](C(=O)N[C@@H](CS)C(=O)NCC(=O)N[C@@H](CCC(N)=O)C(=O)N1CCC[C@H]1C(=O)N[C@@H](CC(C)C)C(=O)N[C@@H](CO)C(=O)N[C@@H](CC(C)C)C(=O)O)[C@@H](C)O [3102.0339] (H-MTCGQPLSL-OH) | 5.6 |
| CC[C@H](C)[C@H](NC(=O)[C@H](CC(C)C)NC(=O)[C@H](Cc1c[nH]cn1)NC(=O)[C@H](Cc1ccccc1)NC(=O)[C@H](CC(N)=O)NC(=O)[C@H](Cc1ccccc1)NC(=O)[C@@H](NC(=O)[C@@H](NC(=O)[C@@H](N)CCCNC(=N)N)[C@@H](C)O)[C@@H](C)CC)C(=O)O [3102.0342] (H-RTIFNFHLI-OH) | 2.1 |
| CC(C)C[C@H](NC(=O)[C@H](CC(N)=O)NC(=O)[C@H](Cc1ccc(O)cc1)NC(=O)[C@H](Cc1ccc(O)cc1)NC(=O)[C@@H](NC(=O)[C@H](Cc1ccc(O)cc1)NC(=O)[C@H](Cc1ccccc1)NC(=O)[C@H](CC(C)C)NC(=O)[C@@H](N)CCCCN)C(C)C)C(=O)O [3102.0343] (H-KLFYVYYNL-OH) | 0.34 |
| CC[C@H](C)[C@H](NC(=O)[C@H](CC(N)=O)NC(=O)[C@@H](NC(=O)[C@@H](NC(=O)[C@H](Cc1ccccc1)NC(=O)[C@@H](NC(=O)[C@H](C)NC(=O)[C@H](CC(C)C)NC(=O)[C@H](C)N)[C@@H](C)O)[C@@H](C)O)C(C)C)C(=O)O [3102.0344] (H-ALATFTVNI-OH) | 6.1 |
| CC[C@H](C)[C@H](NC(=O)[C@@H](NC(=O)[C@H](Cc1ccc(O)cc1)NC(=O)[C@H](CO)NC(=O)[C@@H](N)CCCCN)[C@@H](C)O)C(=O)N[C@@H](CCCNC(=N)N)C(=O)N[C@H](C(=O)N[C@@H](Cc1ccccc1)C(=O)N[C@@H](Cc1ccccc1)C(=O)O)C(C)C [3102.0345] (H-KSYTIRVFF-OH) | 1.1 |
| CC[C@H](C)[C@H](N)C(=O)N[C@H](C(=O)N[C@@H](Cc1ccccc1)C(=O)N[C@@H](CC(=O)O)C(=O)N[C@H](C(=O)N[C@@H](Cc1ccc(O)cc1)C(=O)N[C@@H](Cc1ccccc1)C(=O)N[C@@H](C)C(=O)N[C@H](C(=O)O)[C@@H](C)CC)[C@@H](C)CC)[C@@H](C)CC [3102.0346] (H-IIFDIYFAI-OH) | 0.93 |
| CSCC[C@H](NC(=O)[C@H](Cc1ccc(O)cc1)NC(=O)[C@H](Cc1ccccc1)NC(=O)[C@H](CC(C)C)NC(=O)[C@@H](N)CCSC)C(=O)N[C@@H](CC(=O)O)C(=O)N[C@@H](CC(C)C)C(=O)N[C@@H](CO)C(=O)N[C@@H](Cc1ccc(O)cc1)C(=O)O [3102.0347] (H-MLFYMDLSY-OH) | 1.2 |
| CC[C@H](C)[C@H](NC(=O)[C@H](Cc1c[nH]cn1)NC(=O)[C@@H](NC(=O)[C@H](CO)NC(=O)[C@@H](NC(=O)[C@H](C)NC(=O)[C@H](CO)NC(=O)[C@H](CC(C)C)NC(=O)[C@@H](N)CO)C(C)C)C(C)C)C(=O)O [3102.0349] (H-SLSAVSVHI-OH) | 34 |
| CC[C@H](C)[C@H](NC(=O)[C@@H](NC(=O)[C@H](CO)NC(=O)[C@H](CC(C)C)NC(=O)[C@@H](NC(=O)[C@H](CCSC)NC(=O)[C@H](CCSC)NC(=O)[C@@H](NC(=O)[C@H](C)N)[C@@H](C)CC)[C@@H](C)CC)[C@@H](C)O)C(=O)O [3102.0350] (H-AIMMILSTI-OH) | 2.5 |
| CC[C@H](C)[C@H](N)C(=O)N[C@@H](CCSC)C(=O)N[C@@H](CCSC)C(=O)N[C@H](C(=O)N[C@@H](CC(C)C)C(=O)N[C@@H](CO)C(=O)N[C@H](C(=O)N[C@H](C(=O)N[C@H](C(=O)O)[C@@H](C)CC)[C@@H](C)CC)[C@@H](C)O)[C@@H](C)CC [3102.0351] (H-IMMILSTII-OH) | 11 |
| CC[C@H](C)[C@H](NC(=O)[C@H](CC(=O)O)NC(=O)[C@H](CC(C)C)NC(=O)[C@@H](NC(=O)[C@@H](N)CC(C)C)[C@@H](C)O)C(=O)N[C@@H](Cc1ccccc1)C(=O)N[C@@H](Cc1ccc(O)cc1)C(=O)N[C@@H](CC(C)C)C(=O)N[C@@H](Cc1ccccc1)C(=O)O [3102.0354] (H-LTLDIFYLF-OH) | 4.4 |
| CC[C@H](C)[C@H](NC(=O)[C@@H](NC(=O)[C@@H](NC(=O)[C@H](CC(=O)O)NC(=O)[C@@H](NC(=O)[C@H](Cc1ccccc1)NC(=O)[C@@H](NC(=O)[C@@H](NC(=O)[C@@H](N)CO)[C@@H](C)CC)C(C)C)C(C)C)C(C)C)[C@@H](C)CC)C(=O)O [3102.0355] (H-SIVFVDVII-OH) | 59 |
| CC[C@H](C)[C@H](NC(=O)CNC(=O)[C@@H](NC(=O)[C@@H](NC(=O)[C@H](CC(C)C)NC(=O)CNC(=O)[C@H](CS)NC(=O)[C@@H](NC(=O)[C@@H](N)C(C)C)[C@@H](C)CC)[C@@H](C)CC)C(C)C)C(=O)O [3102.0356] (H-VICGLIVGI-OH) | 26 |
